The structures appear in SMILES notation.

The assay addresses T1, endothelin-converting enzyme (ECE) (Homo sapiens, UniProt P42892).
T1 sequence (P42892 1-770): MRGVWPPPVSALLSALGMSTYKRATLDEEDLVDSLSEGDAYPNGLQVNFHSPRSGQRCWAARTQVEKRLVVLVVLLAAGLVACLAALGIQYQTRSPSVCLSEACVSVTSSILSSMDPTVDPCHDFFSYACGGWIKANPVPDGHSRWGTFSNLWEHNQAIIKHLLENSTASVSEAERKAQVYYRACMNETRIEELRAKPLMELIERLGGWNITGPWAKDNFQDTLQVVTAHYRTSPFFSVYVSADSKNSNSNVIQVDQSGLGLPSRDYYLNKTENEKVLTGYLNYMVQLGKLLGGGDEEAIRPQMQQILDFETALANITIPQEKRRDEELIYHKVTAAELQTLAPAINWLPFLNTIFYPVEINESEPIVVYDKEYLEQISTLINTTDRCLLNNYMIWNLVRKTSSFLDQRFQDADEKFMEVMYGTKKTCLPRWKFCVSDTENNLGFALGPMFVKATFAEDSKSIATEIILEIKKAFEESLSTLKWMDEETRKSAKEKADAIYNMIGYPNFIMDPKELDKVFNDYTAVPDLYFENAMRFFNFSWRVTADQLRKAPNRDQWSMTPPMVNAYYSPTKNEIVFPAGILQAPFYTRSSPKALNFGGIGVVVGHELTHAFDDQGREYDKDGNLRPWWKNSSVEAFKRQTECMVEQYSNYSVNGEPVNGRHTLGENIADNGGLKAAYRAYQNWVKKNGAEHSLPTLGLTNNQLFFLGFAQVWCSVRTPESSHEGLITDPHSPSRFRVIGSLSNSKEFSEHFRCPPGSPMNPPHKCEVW
Put plainly: Determination of the inhibitory activity of the endothelin-converting enzyme (ECE), cleavage of (2,3-3H)propionyl-b-ET-1(19-35). The assay is classed as biochemical. Particulars: purified ECE, pre-incubation 30 minutes at 37° C., Tris maleate buffer pH=6.5, incubation one hour at 37° C.; read-out: IC50 (concentration which causes a 50% inhibition of ECE). The text has this: A test is used, in which the product (2,3-^3H)propionyl-b-ET-1(19-35) prepared as indicated below in a) is cleaved by ECE into the product (2,3-^3H)propionyl-b-ET-1(19-21) in the presence of product P of which the inhibitory activity of ECE one wishes to determine as indicated below in b): the inhibitory activity of ECE of the product P will therefore be accordingly as high as the quantity of product of formula (II) formed, determined by counting the radioactivity, will be low. The operation is carried out as follows:
10 μl of ECE i.e. 1 to 2 μg of purified ECE are pre-incubated for 30 minutes at 37° C., in 400 μl of a 50 mM Tris maleate buffer pH=6.5, 20 μl of 5M sodium chloride and 5 μl of product P the inhibitory activity of which one wishes to test, in solution at different concentrations (comprised between […]) (i.e. final concentrations in product P of 10 nM to 1 mM).
The reaction is initiated by the addition of 10 μl of (2,3-^3H)propionyl-b-ET-1(19-35) prepared as indicated above in a), at a final concentration of 1.8.10^−12M.
After incubation for one hour at 37° C., the reaction is stopped by the addition of 600 μl of ethyl acetate and the (2,3-^3H)propionyl-b-ET-1(19-21) is extracted by mechanical agitation for 2 minutes.
300 μl of the organic phase is removed, 5 ml of liquid scintillator is added and the radioactivity is counted for 1 minute with a liquid scintillation counter.
Each measurement is carried out in triplicate except for the ECE control (control enzyme, without the product the ECE inhibitory activity of which one wishes to test), for which the measurement is carried out six times.
The percentage inhibition is calculated by establishing the relationship: [formula]
The blank is carried out starting with the solution obtained without enzyme.
From the cpm's obtained and by plotting the graph of the percentage of inhibition relative to the concentration of inhibitor (nM), the IC50 is calculated which therefore corresponds to the concentration which causes a 50% inhibition of ECE.
Turning to `N#Cc1ccccc1-c1ccc(CC(C(=O)O)C(=O)N[C@@H](CS)Cc2ccccc2)cc1` (mixture of isomers) [Example 4, 2′-cyano-alpha-[[[1-(mercaptomethyl)-2-phenylethyl]amino]carbonyl]-(1,1′-biphenyl)-4-propanoic acid], the IC50 turned out to be 30 nM.

Turning to `O=C(CCCCCCCCCCOc1ccccc1)N[C@@H](CS)Cc1ccccc1` [Example 6], the IC50 stood at 220 nM.

With `N#Cc1ccccc1-c1ccc(CC(C(=O)O)C(=O)NC(CS)Cc2ccc(OS(=O)(=O)C(F)(F)F)cc2)cc1` (stereo not drawn) [Example 10, 2′-Cyano-alpha-[[[1-(mercaptomethyl) 2-(paratrifluoromethylsulphonyloxy)phenylethyl]amino]carbonyl](1,1′-biphenyl) 4-propanoic acid], the IC50 was found to be 150 nM.

The record behind these values is patent publication US6420341B1, “Sulphur derivatives with a retroamide bond as endothelin-converting enzyme inhibitors” (Aventis Pharma S.A., priority 1996, dated 2002).
